Measured values reported in patent publication US5972907A, “Synthetic core 2-like branched structures containing GalNAc-lewis^x and Neu5Acα2-3Galβ1-3GalNAc sequences as novel ligands for selectins” (Health Research, Inc., priority 1997, dated 1999).

How the values were obtained:
L-Selectin [1] = biological target: T1, L-Selectin (Homo sapiens, UniProt P14151); experiment: ELISA inhibition of recombinant L-selectin binding to immobilized SLe^x; details: mean of 3 determinations, read-out: IC50 Values Against SLe^x, L-Selectin
T1 sequence (P14151 39-372): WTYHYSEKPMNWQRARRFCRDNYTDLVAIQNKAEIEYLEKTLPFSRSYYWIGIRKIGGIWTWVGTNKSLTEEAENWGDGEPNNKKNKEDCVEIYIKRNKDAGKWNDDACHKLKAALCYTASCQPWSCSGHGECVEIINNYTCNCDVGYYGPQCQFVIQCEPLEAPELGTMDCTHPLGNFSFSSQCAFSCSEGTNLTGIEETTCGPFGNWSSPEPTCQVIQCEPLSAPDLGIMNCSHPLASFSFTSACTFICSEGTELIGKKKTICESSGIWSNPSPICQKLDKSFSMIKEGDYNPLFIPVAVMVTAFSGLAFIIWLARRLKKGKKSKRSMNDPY
Procedure: (§1) Relative Inhibitory Properties of Branched Chains Including Neu5Ac and/or GalNAcLe^x Against Recombinant Selectins Binding to Immobilized SLe^x
(§2) ELISA inhibition studies were done as previously reported conditions. Ic50 values against immobilized SLe^x are the mean values of 3 determinations and were calculated according to published methodology.

E-Selectin [2] = biological target: T2, E-Selectin (Homo sapiens, UniProt P16581); experiment: ELISA inhibition of recombinant E-selectin binding to immobilized SLe^x; details: mean of 3 determinations, read-out: IC50 Values Against SLe^x, E-Selectin
T2 sequence (P16581 22-610): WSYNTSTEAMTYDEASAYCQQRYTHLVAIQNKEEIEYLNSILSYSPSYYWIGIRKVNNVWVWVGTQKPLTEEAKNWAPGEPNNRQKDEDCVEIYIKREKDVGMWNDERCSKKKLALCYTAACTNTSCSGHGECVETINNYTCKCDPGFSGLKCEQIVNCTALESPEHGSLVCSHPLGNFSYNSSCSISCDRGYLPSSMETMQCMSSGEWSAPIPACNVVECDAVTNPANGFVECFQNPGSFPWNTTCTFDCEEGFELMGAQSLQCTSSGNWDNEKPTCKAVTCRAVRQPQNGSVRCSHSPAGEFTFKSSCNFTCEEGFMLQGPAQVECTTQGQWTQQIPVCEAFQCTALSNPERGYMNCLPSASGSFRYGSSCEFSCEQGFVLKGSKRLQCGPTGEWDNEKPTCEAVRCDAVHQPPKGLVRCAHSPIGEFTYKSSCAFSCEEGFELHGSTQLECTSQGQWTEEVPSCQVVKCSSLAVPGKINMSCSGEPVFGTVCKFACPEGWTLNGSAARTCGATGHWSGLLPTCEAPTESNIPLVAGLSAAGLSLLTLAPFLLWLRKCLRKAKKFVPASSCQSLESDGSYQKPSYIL
Procedure: as §1, §2

P-Selectin [3] = biological target: T3, P-Selectin (Homo sapiens, UniProt P16109); experiment: ELISA inhibition of recombinant P-selectin binding to immobilized SLe^x; details: for IC50: recombinant selectin, immobilized SLe^x, ELISA, mean of 3 determinations, read-out: IC50 Values Against SLe^x, P-Selectin
T3 sequence (P16109 42-830): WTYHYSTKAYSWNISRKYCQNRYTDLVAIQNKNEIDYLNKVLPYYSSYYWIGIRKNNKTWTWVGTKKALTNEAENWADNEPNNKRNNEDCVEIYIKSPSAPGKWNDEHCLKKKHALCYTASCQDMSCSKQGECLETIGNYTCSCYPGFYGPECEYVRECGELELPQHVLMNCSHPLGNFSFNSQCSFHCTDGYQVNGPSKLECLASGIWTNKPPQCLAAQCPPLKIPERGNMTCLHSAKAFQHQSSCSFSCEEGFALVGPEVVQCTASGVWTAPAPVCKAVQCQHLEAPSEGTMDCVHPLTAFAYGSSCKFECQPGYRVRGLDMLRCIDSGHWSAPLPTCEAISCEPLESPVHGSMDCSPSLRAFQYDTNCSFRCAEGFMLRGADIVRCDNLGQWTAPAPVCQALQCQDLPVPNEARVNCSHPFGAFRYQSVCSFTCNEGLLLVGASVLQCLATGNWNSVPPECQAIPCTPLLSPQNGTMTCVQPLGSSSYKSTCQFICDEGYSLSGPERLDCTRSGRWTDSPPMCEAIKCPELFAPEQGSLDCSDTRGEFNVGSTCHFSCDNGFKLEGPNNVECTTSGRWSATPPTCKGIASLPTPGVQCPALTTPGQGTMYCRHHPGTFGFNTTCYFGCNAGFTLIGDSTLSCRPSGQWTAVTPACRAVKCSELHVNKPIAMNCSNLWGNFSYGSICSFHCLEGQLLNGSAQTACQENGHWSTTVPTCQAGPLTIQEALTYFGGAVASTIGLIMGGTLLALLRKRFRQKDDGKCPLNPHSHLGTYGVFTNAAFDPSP
Procedure: as §1, §2

L-Selectin [4] = biological target: T1, L-Selectin; details: cited from earlier work; for affinity for L-selectin: recent study / inhibition studies of Scudder et al.
P-Selectin [5] = biological target: T3, P-Selectin; experiment: Other studies of binding (unspecified; P-selectin context); details: no details given
E-Selectin [6] = biological target: T2, E-Selectin; details: isolated from human cell produced Protein C; cited from earlier work

## CO[C@H]1O[C@H](CO[C@@H]2O[C@H](CO)[C@@H](O[C@@H]3O[C@H](CO)[C@H](O)[C@H](O)[C@H]3NC(C)=O)[C@H](O[C@@H]3O[C@@H](C)[C@@H](O)[C@@H](O)[C@@H]3O)[C@H]2NC(C)=O)[C@H](O)[C@H](O[C@@H]2O[C@H](CO)[C@H](O)[C@H](O[C@]3(C(=O)O)C[C@H](O)[C@@H](NC(C)=O)[C@H]([C@H](O)[C@H](O)CO)O3)[C@H]2O)[C@H]1NC(C)=O [Compound 16]
L-Selectin [1]
  IC50: 105 µM
E-Selectin [2]
  IC50: > 500 µM
P-Selectin [3]
  IC50: 85 µM

## NeuAcα2→3Galβ1→4(Fucα1→3)SE-3GlcNAcβ1→3Gal
L-Selectin [4]
  affinity for L-selectin: lacked a high affinity

## CO[C@H]1O[C@H](CO[C@@H]2O[C@H](CO)[C@@H](O[C@@H]3O[C@H](CO)[C@H](O)[C@H](O)[C@H]3NC(C)=O)[C@H](O[C@@H]3O[C@@H](C)[C@@H](O)[C@@H](O)[C@@H]3O)[C@H]2NC(C)=O)[C@H](O)[C@H](O[C@@H]2O[C@H](CO)[C@H](O)[C@H](O)[C@H]2O)[C@H]1NC(C)=O [Compound 14, Methyl O-(2-acetamido-2-deoxy-β-D-galactopyranosyl)-(1→4)-O-[(α-L-fucopyranosyl)-(1→3)-O]-(2-acetamido-2-deoxy-β-D-glucopyranosyl)-(1→6)-O-[(β-D-galactopyranosyl)-(1→3)-O]-2-acetamido-2-deoxy-α-D-galactopyranoside]
L-Selectin [1]
  IC50: 300 µM
E-Selectin [2]
  IC50: > 500 µM
P-Selectin [3]
  IC50: 400 µM

## sialyl Lewis^x [reference compound]
L-Selectin [1]
  IC50: 600 µM

## CO[C@@H]1O[C@H](CO)[C@@H](O[C@@H]2O[C@H](CO)[C@H](O)[C@H](O)[C@H]2NC(C)=O)[C@H](O[C@@H]2O[C@@H](C)[C@@H](O)[C@@H](O)[C@@H]2O)[C@H]1NC(C)=O [Compound 8b]
L-Selectin [1]
  IC50: 300 µM
E-Selectin [2]
  IC50: > 500 µM
P-Selectin [3]
  IC50: 400 µM

## CO[C@H]1O[C@H](CO[C@@H]2O[C@H](CO)[C@@H](O[C@@H]3O[C@H](CO)[C@H](O)[C@H](O)[C@H]3NC(C)=O)[C@H](O[C@@H]3O[C@@H](C)[C@@H](O)[C@@H](O)[C@@H]3O)[C@H]2NC(C)=O)[C@H](O)[C@H](O[C@@H]2O[C@H](CO)[C@H](O)[C@H](OS(=O)(=O)O)[C@H]2O)[C@H]1NC(C)=O [Compound 19]
L-Selectin [1]
  IC50: 500 µM
P-Selectin [5]
  binding in other studies: even greater binding
E-Selectin [2]
  IC50: > 500 µM
P-Selectin [3]; compared with sialyl Lewis^x
  binding ability relative to sialyl Lewis^x for P-selectin: about six
P-Selectin [3]
  IC50: > 500 µM

## COC1O[C@H](CO)[C@@H](O[C@@H]2O[C@H](COS(=O)(=O)O)[C@H](O)[C@H](O[C@]3(C(=O)O)C[C@H](O)[C@@H](NC(C)=O)[C@H]([C@H](O)[C@H](O)CO)O3)[C@H]2O)[C@H](O[C@@H]2O[C@@H](C)[C@@H](O)[C@@H](O)[C@@H]2O)[C@H]1NC(C)=O (stereo partly shown) [NeuAcα2→3SE-6 Galβ1→4(Fucα1→3)GlcNAcOMe]
L-Selectin [4]
  affinity for L-selectin: lacked a high affinity
L-Selectin [4]; recent study
  ligand quality for L-selectin: not a superior ligand

## GalNAcβ1→4(Fucα1→3)GlcNAcβ1→Manα1→3/6Manβ1→4GlcNAcβ1→4GlcNAc
E-Selectin [6]
  inhibition of E-selectin: potent inhibitor
